From US20210269483A1, “PEPTIDE COMPOUNDS” (ULTUPHARMA AB, priority 2018, published 2021)
Values after ≈ are worked out from the molar mass of the structure shown. Read-outs that look alike come from different tables or passages of the source. Starred links: 1 amine or outer side, 2 acyl side, 3 side chain; linkers in the order of their positions; H or OH if unused. Positions of bridges follow the written chain, without caps; N, C: chain ends. Non-standard residues stand in square brackets, D forms with d. Residues, ends and D or L forms follow the SMILES beside them. X4 = CCCCCCC=CC[C@H](CC(=O)[*:1])O[*:2]; Val(3-OH) = CC(C)(O)[C@H](N)C(=O)O; X1 = C/C=C(/N[*:1])C(=O)[*:2]; Dab = NCC[C@H](N)C(=O)O; Dap = NC[C@H](N)C(=O)O

Tests used:
P. aeruginosa = assay type: cell-based, Pseudomonas aeruginosa
Description: (§1) 2015. M7-A10. Methods for dilution antimicrobial susceptibility tests for bacteria that grow aerobically, 10th ed. Approved standard. CLSI, Wayne, Pa.).
(§2) A) In the broth micro-dilution method, the test media were either AM3 Broth (BD Difco Ltd) mixed with phosphate buffered saline (PBS, Amresco LLC, Solon, USA) in 1:4 ratio (E. colt A. baumannii, Enterobacter cloacae, Klebsiella pneumonia and P. aeruginosa), AM3 Broth mixed with PBS in 1:1 ratio (S. aureus) or Malt Extract (ME; 15 g Malt Extract Dico Ltd. in 1000 mL deionized H2O; Aspergillus fumigatus). Prior to MIC-tests, the bacterial cell concentration/fungal spore concentration was adjusted to between 1 and 5×10^5 cells/spores per mL. […] Afterwards, suspensions of pathogen cells in the appropriate medium were dispensed to the wells of microtiter plates and the growth of pathogens were monitored after 16 to 20 h of incubation at 37° C. in the dark. Positive control comprised respective pathogen cells suspended in untreated sterile appropriate media without addition of compounds(s) and negative control comprised the medium only. The MIC was defined as the lowest concentration of each compound with no visible growth of pathogen. All MIC tests were performed in duplicate and/or triplicate and repeated at least twice.

S. aureus = assay type: cell-based, Staphylococcus aureus
Description: as §1, §2

A. baumannii = assay type: cell-based, Acinetobacter baumannii
Description: as §1, §2

E. coli = assay type: cell-based, Escherichia coli
Description: as §1, §2

HepG2 = details: HepG2, determined by a CRO
Experimental: IC50, haemolysis rate and frequency of resistance (FoR, Table 4) was determined using standard protocols by different CROs.

E. cloacae = assay type: cell-based, Enterobacter cloacae
Description: as §1, §2

K. pneumoniae = assay type: cell-based, Klebsiella pneumonia
Description: as §1, §2

[1] = method A, only lower limit of concentration range shown ("16" means "16-32")

Compound | MIC P. aeruginosa LMG6395 (P. aeruginosa; [1]) [µg/mL] | MIC S. aureus LMG15975 (S. aureus; [1]) [µg/mL] | MIC A. baumannii LMG1041T (A. baumannii; [1]) [µg/mL] | MIC E. coli LMG15862 (E. coli; [1]) [µg/mL] | IC50 (HepG2) (HepG2) [µg/mL] | MIC E. cloacae LMG2783T (E. cloacae; [1]) [µg/mL] | MIC K. pneumonia LMG20218 (K. pneumoniae; [1]) [µg/mL] | MIC P. aeruginosa LMG6395 (P. aeruginosa) [µg/mL] | MIC S. aureus LMG15975 (S. aureus) [µg/mL] | MIC A. baumannii LMG1041T (A. baumannii) [µg/mL] | MIC E. coli LMG15862 (E. coli) [µg/mL] | MIC E. cloacae LMG2783T (E. cloacae) [µg/mL] | MIC K. pneumonia LMG20218 (K. pneumoniae) [µg/mL]
Table 2 cyclic lipodepsipeptide: R C10H21; DAPA-Leu-DABA-ABA-Thr-DAPA-Phe-Val-Asp [U800] | 16 | 16 | 8 | 8 | 12 | 8 | >32 | – | – | – | – | – | –
Table 2 cyclic lipodepsipeptide: R C7H15; DAPA-Leu-DABA-ABA-Thr-DAPA-Phe-OHVal-Asp [U744] | 16 | >32 | 16 | 16 | 72 | 16 | 8 | – | – | – | – | – | –
Table 2 cyclic lipodepsipeptide: R C9H17; DAPA-Leu-DABA-ABA-Thr-DAPA-Phe-Val-Asp [U771] | 2 | 2 | 1 | 1 | 9 | 2 | 2 | – | – | – | – | – | –
C/C=C1/NC(=O)[C@H](CCN)NC(=O)[C@H](CC(C)C)NC(=O)[C@H](CN)NC(=O)C[C@@H](CC=CCCCCCC)OC(=O)[C@H](CC(=O)O)NC(=O)[C@H](C(C)(C)O)NC(=O)[C@@H](Cc2ccccc2)NC(=O)[C@H](CN)NC(=O)[C@H]([C@@H](C)O)NC1=O [U756, cyclo-((R)-3-hydroxydodec-5-enoyl-L-DAPA-L-Leu-L-DABA-ABA-L-Thr-L-DAPA-D-Phe-L-OHVal-L-Asp)] ([Dap]L[Dab][X1]T[Dap][dF][Val(3-OH)]D; linker N-C via X4) | – | – | – | – | – | – | – | 4 (≈ 3.5 µM) | 4 (≈ 3.5 µM) | 1 (≈ 0.875 µM) | 1 (≈ 0.875 µM) | 2 (≈ 1.75 µM) | 2 (≈ 1.75 µM)
Table 2 cyclic lipodepsipeptide: R C10H21; Asn-Leu-DABA-ABA-Thr-DAPA-Phe-OHVal-Asp [U810] | >32 | 16 | 8 | 8 | 15 | 8 | >32 | – | – | – | – | – | –
Table 2 cyclic lipodepsipeptide: R C9H17; DAPA-Leu-DABA-ABA-Thr-DAPA-Phe-Val-Asp [U775] | 4 | 16 | 8 | 4 | 9 | 4 | 16 | – | – | – | – | – | –
